Source: US5753715A, “2-disubstituted cyclohexenyl and cyclohexyl antimicrobial agents” (Ortho Pharmaceutical Corporation, priority 1995, dated 1998)
Values after ≈ are worked out from the molar mass of the structure shown.

What was measured:
Kinase A and SpoOF = biological target: T1, Kinase A and SpoOF (Bacillus subtilis, UniProt P16497); test: Autophosphorylation of Kinase A and Transphosphorylation of SPoOF Assay; assay type: biochemical; conditions: inhibition of Kinase A autophosphorylation / SpoOF transphosphorylation, [32P]ATP, gel, phosphoimager
T1 sequence (P16497 1-606): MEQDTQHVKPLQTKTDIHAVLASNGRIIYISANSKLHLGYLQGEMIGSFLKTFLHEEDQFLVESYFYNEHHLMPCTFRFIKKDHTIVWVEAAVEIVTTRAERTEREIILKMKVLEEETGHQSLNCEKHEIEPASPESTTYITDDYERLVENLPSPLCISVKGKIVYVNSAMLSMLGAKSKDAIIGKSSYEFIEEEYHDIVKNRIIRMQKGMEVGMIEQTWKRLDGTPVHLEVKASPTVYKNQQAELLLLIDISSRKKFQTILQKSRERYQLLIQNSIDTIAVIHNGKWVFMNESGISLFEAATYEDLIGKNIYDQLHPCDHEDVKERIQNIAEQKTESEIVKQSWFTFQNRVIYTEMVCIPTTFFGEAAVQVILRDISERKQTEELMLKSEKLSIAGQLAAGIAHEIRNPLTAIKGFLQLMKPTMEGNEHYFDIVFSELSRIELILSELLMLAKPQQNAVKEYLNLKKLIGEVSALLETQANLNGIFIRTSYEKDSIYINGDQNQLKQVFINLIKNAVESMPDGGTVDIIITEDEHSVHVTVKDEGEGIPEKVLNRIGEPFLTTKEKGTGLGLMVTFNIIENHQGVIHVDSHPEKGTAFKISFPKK

E. coli oc2530 = test: MIC, microdilution broth method (NCCLS); assay type: cell-based; conditions: cation supplemented Mueller Hinton broth, 35° C., 16-20 hours; unit assumed
Description: (§1) The in vitro antimicrobial spectrum of the compounds of the present invention were determined by the microdilution broth method following the test method from the National Committee for […] (NCCLS ). The method is described in the NCCLS Document M7-A2, Vol. 10, No.8 "Methods for Dilution Antimicrobial Susceptibility Test for Bacteria that Grow Aerobically--Second Edition".
(§2) In this method two fold serial dilutions of drug in cation supplemented Mueller Hinton broth are added to wells in microdilution trays. The test organisms are prepared by adjusting the turbidity of actively growing broth cultures so that the final concentration of test organism after it is added to the wells is approximately 5×10^4 colony forming units per well delivered by the Steers replicating device.
(§3) Following inoculation of the microdilution trays, the trays are incubated at 35° C. for 16-20 hours and then read. […] The amount of growth in the wells containing the test compound is compared with the amount of growth in the growth-control wells used in each tray.

E. faecalis ACTCC 29212 = test: MIC, microdilution broth method (NCCLS); assay type: cell-based; conditions: cation supplemented Mueller Hinton broth, 35° C., 16-20 hours; unit assumed
Description: as §1, §2, §3

K. pneum. oc1943 = test: MIC, microdilution broth method (NCCLS); assay type: cell-based; conditions: cation supplemented Mueller Hinton broth, 35° C., 16-20 hours; unit assumed
Description: as §1, §2, §3

Ps. aerug. oc27853 = test: MIC, microdilution broth method (NCCLS); assay type: cell-based; conditions: cation supplemented Mueller Hinton broth, 35° C., 16-20 hours; unit assumed
Description: as §1, §2, §3

MRSA oc667 = test: MIC, microdilution broth method (NCCLS); assay type: cell-based; conditions: cation supplemented Mueller Hinton broth, 35° C., 16-20 hours; unit assumed
Description: as §1, §2, §3

S. aureus ATCC 29213 = test: MIC, microdilution broth method (NCCLS); assay type: cell-based; conditions: cation supplemented Mueller Hinton broth, 35° C., 16-20 hours; unit assumed
Description: as §1, §2, §3

C. albicans 10231 = test: MIC, microdilution broth method (NCCLS); assay type: cell-based; conditions: cation supplemented Mueller Hinton broth, 35° C., 16-20 hours; unit assumed
Description: as §1, §2, §3

C. tropicalis = test: MIC, microdilution broth method (NCCLS); assay type: cell-based; conditions: cation supplemented Mueller Hinton broth, 35° C., 16-20 hours; unit assumed
Description: as §1, §2, §3

E. faecium oc2993 = test: MIC, microdilution broth method (NCCLS); assay type: cell-based; conditions: cation supplemented Mueller Hinton broth, 35° C., 16-20 hours; unit assumed
Description: as §1, §2, §3

Ps. aerug. oc161 = test: MIC, microdilution broth method (NCCLS); assay type: cell-based; conditions: cation supplemented Mueller Hinton broth, 35° C., 16-20 hours; unit assumed
Description: as §1, §2, §3

MRSA oc2089 = test: MIC, microdilution broth method (NCCLS); assay type: cell-based; conditions: cation supplemented Mueller Hinton broth, 35° C., 16-20 hours; unit assumed
Description: as §1, §2, §3

A. niger 10578 = test: MIC, microdilution broth method (NCCLS); assay type: cell-based; conditions: cation supplemented Mueller Hinton broth, 35° C., 16-20 hours; unit assumed
Description: as §1, §2, §3

E. coli oc2605 = test: MIC, microdilution broth method (NCCLS); assay type: cell-based; conditions: cation supplemented Mueller Hinton broth, 35° C., 16-20 hours; unit assumed
Description: as §1, §2, §3

E. faecalis oc3041 = test: MIC, microdilution broth method (NCCLS); assay type: cell-based; conditions: cation supplemented Mueller Hinton broth, 35° C., 16-20 hours; unit assumed
Description: as §1, §2, §3

S. epi oc2603 = test: MIC, microdilution broth method (NCCLS); assay type: cell-based; parameters: unit not given here; conditions: cation supplemented Mueller Hinton broth, 35° C., 16-20 hours
Description: as §1, §2, §3

Row | IC50 (Kinase A and SpoOF) | IC min (Kinase A and SpoOF) | SMILES | further results
1 | 35.8 mM | – | N=C(N)NCc1ccc(OCCC2(Cc3cccc(Cl)c3)C=CCCC2)cc1 (centres unmarked) [Compound 6] | –
2 | 107.7 mM | 62.5 mM | CNCCc1cccc(OCCC2(Cc3ccccc3)C=CCCC2)c1 (centres unmarked) [Compound 37] | –
3 | 133 mM | 62.5 mM | COc1ccc(CC2(CCOc3ccc(CCCNCCN4CCCC4)cc3)C=CCCC2)cc1 (centres unmarked) [Compound 44] | –
4 | – | 500 mM | CNCCCc1cnc(NCCC2(Cc3ccccc3)C=CCCC2)nc1 (centres unmarked) [Compound 48] | –
5 | 122 mM | – | COc1ccc(CC2(CCOc3ccccc3CN)C=CCCC2)cc1 (centres unmarked) [Compound 54] | –
6 | 46.8 mM | 31.25 mM | Clc1cccc(CC2(CCOc3ccc(CCNCCN4CCCC4)cc3)C=CCCC2)c1 (centres unmarked) [Compound 40] | –
7 | 46.6 mM | – | COc1ccc(CC2(CCOc3ccc(CNC(=N)N)cc3)C=CCCC2)cc1 (centres unmarked) [Compound 57] | –
8 | – | – | CC1COc2c(N3CCN(C)CC3)c(F)cc3c(=O)c(C(=O)O)cn1c23 (centres unmarked) [OFX, reference compound] | MIC E. coli oc2530 (E. coli oc2530): ≤ 0.12 µg/mL; MIC E. faecalis ACTCC 29212 (E. faecalis ACTCC 29212): 2 µg/mL (≈ 5.53 µM); MIC K. pneum. oc1943 (K. pneum. oc1943): 0.25 µg/mL (≈ 0.692 µM); MIC Ps. aerug. oc27853 (Ps. aerug. oc27853): 8 µg/mL (≈ 22.1 µM); MIC MRSA oc667 (MRSA oc667): 0.5 µg/mL (≈ 1.38 µM); MIC S. aureus ATCC 29213 (S. aureus ATCC 29213): 0.5 µg/mL (≈ 1.38 µM); MIC C. albicans 10231 (C. albicans 10231): > 128 µg/mL; MIC C. tropicalis (C. tropicalis): > 128 µg/mL; MIC E. faecium oc2993 (E. faecium oc2993): 4 µg/mL (≈ 11.1 µM); MIC Ps. aerug. oc161 (Ps. aerug. oc161): 2 µg/mL (≈ 5.53 µM); MIC MRSA oc2089 (MRSA oc2089): 4 µg/mL (≈ 11.1 µM); MIC A. niger 10578 (A. niger 10578): > 128 µg/mL; MIC E. coli oc2605 (E. coli oc2605): ≤ 0.12 µg/mL; MIC E. faecalis oc3041 (E. faecalis oc3041): 2 µg/mL (≈ 5.53 µM); MIC S. epi oc2603 (S. epi oc2603): 2
9 | – | 500 mM | CC(C)NCCc1ccc(OCCC2(CCCc3ccccc3)CCCCC2)cc1 [Compound 14] | –
10 | – | > 1000 mM | Fc1ccc(C2(CCOc3ccc(CCCNCc4ccccc4)cc3)C=CCCC2)cc1 (centres unmarked) [Compound 28] | –
11 | 18.5 mM | 15.6 mM | NCc1ccc(OCCC2(Cc3cccc(Cl)c3)C=CCCC2)cc1 (centres unmarked) [Compound 5] | –
12 | 210 mM | 125 mM | COc1ccc(CC2(CCOc3ccc(CCCN)cc3)C=CCCC2)cc1 (centres unmarked) [Compound 43] | –
13 | 446 mM | 250 mM | COc1cc(CN)ccc1OCCC1(Cc2ccccc2)C=CCCC1 (centres unmarked) [Compound 9] | –
14 | 91.3 mM | – | NCc1ccccc1OCCC1(Cc2ccccc2Cl)C=CCCC1 (centres unmarked) [Compound 55] | –
15 | 200 mM | 125 mM | OCCNCCCc1ccc(OCCC2(c3ccc(F)cc3)C=CCCC2)cc1 (centres unmarked) [Compound 25] | –
16 | 295 mM | 125 mM | CC(C)C1(CCOc2ccc(CCNCCN3CCCC3)cc2)C=CCCC1 (centres unmarked) [Compound 23] | –
17 | 437 mM | 250 mM | CCCCNCCCc1ccc(OCCC2(c3ccc(F)cc3)C=CCCC2)cc1 (centres unmarked) [Compound 26] | –
18 | 92.3 mM | – | CNCCCc1cnc(SCCC2(Cc3ccccc3)C=CCCC2)nc1 (centres unmarked) [Compound 8] | –
19 | 43.5 mM | 15.6 mM | NCCc1ccc(OCCC2(Cc3ccc([N+](=O)[O-])cc3)CCCCC2)cc1 [Compound 16] | –
20 | 122 mM | – | CN(C)CCCc1ccc(OCCC2(Cc3ccccc3)C=CCCC2)cc1 (centres unmarked) [Compound 20] | –
21 | 139 mM | 62.5 mM | CNCCCc1ccc(OCCC2(Cc3ccc(OC)cc3)C=CCCC2)cc1 (centres unmarked) [Compound 42] | –
22 | 74.8 mM | – | NCc1cccc(OCCC2(Cc3cc(Cl)cc(Cl)c3)C=CCCC2)c1 (centres unmarked) [Compound 58] | –

Row | SMILES | IC50 (Kinase A and SpoOF) | IC min (Kinase A and SpoOF) | further results
23 | CC(C)C1(CCOc2ccc(CCN)cc2)C=CCCC1 (centres unmarked) [Compound 22] | 94.7 mM | 31.25 mM | –
24 | CNCCc1ccc(OCCCC2(Cc3ccccc3)C=CCCC2)cc1 (centres unmarked) [Compound 30] | 145 mM | 125 mM | –
25 | NCCc1ccc(OCCC2(Cc3ccccc3)CCCCC2)cc1 [Compound 13] | 39.5 mM | 7.8 mM | –
